Reference: ChEMBL document CHEMBL1629579, “Correlating echinocandin MIC and kinetic inhibition of fks1 mutant glucan synthases for Candida albicans: implications for interpretive breakpoints” (Antimicrob Agents Chemother, 2009)
Numbered stars: 1 amine (or outer) side, 2 acyl side, 3 side chain; on linkers, the order of the positions; unused ones are H or OH. Bridge positions count the residues as written; N and C are the ends. Square brackets hold non-standard residues; d marks the D form. Peptide text beside a SMILES is read from it. * marks the point of attachment. pTerphenylCO(4''-OnC5H11) = CCCCCOc1ccc(-c2ccc(-c3ccc(C(=O)*)cc3)cc2)cc1; Orn(4R-OH,5R-OH) = O=C([C@H](C[C@@H](O)[C@@H](O)N[*:3])N[*:1])[*:2]; hTyr(3S-OH,4S-OH) = N[C@H](C(=O)O)[C@H](O)[C@@H](O)c1ccc(O)cc1; Pro(3S-OH,4S-Me) = C[C@H]1CN[C@H](C(=O)O)[C@H]1O; Hyp = O=C(O)[C@@H]1C[C@@H](O)CN1

Test system: Candida albicans
Assay: Selectivity ratio of Ki for Candida albicans A15-10 1,3-beta-D-glucan synthase subunit FKS1p T1933C mutant to Ki for Candida albicans SC5314 wild type 1,3-beta-D-glucan synthase subunit FKS1p

CCCCCOc1ccc(-c2ccc(-c3ccc(C(=O)N[C@H]4C[C@@H](O)[C@@H](O)NC(=O)[C@@H]5[C@@H](O)[C@@H](C)CN5C(=O)[C@H]([C@@H](C)O)NC(=O)[C@H]([C@H](O)[C@@H](O)c5ccc(O)cc5)NC(=O)[C@@H]5C[C@@H](O)CN5C(=O)[C@H]([C@@H](C)O)NC4=O)cc3)cc2)cc1 [ANIDULAFUNGIN] ({pTerphenylCO(4''-OnC5H11)}-[Orn(4R-OH,5R-OH)]T[Hyp][hTyr(3S-OH,4S-OH)]T[Pro(3S-OH,4S-Me)]; lactam 1-C) gave a Ratio Ki greater than 100.
